Molecules are shown by their SMILES.

The target in the assay is T1, GCS (Canis lupus familiaris, UniProt A0A8I3MXG6).
T1 sequence (A0A8I3MXG6 1-394): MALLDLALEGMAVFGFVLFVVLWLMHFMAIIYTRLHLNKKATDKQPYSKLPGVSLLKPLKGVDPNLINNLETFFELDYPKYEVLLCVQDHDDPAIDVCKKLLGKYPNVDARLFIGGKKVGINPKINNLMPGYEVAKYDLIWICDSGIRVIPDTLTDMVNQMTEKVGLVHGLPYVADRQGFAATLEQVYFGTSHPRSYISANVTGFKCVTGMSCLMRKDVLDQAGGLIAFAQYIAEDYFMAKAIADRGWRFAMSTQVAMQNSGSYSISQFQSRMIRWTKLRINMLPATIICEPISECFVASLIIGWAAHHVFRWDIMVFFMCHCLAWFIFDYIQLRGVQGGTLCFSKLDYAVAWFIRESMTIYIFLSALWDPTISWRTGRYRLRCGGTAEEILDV
Briefly: Assay 1: GCS Enzymatic Assay (MDCK cell lysate, C6-NBD-Ceramide, LC/MS). The assay is classed as biochemical, canine. The following applies: Table 2; data without asterisk; read-out: IC50 (nM) generated from Assay 1. In a few lines:
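LC/MS/MS measurement of glucosylceramide and NBD-ceramide after a 1 h, 37 °C reaction with 100 μM UDP-glucose and 10 μM C6-NBD-ceramide gave IC50s or percent inhibition.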
Turning to `O=C(N[C@H](CN1CCCC1)[C@H](O)c1ccc(OC2CCC2)c(Cl)c1)C(=O)c1ccc(-c2ccc(F)cc2)cc1` [Example 313, N-((1R,2R)-1-(3-chloro-4-cyclobutoxyphenyl)-1-hydroxy-3-(pyrrolidin-1-yl)propan-2-yl)-2-(4′-fluoro-[1,1′-biphenyl]-4-yl)-2-oxoacetamide], the IC50 (as a rule, the midpoint of a concentration-inhibition curve) was below 50 nM.

For the compound `Cc1nn(C(C)C)c2ccc(-c3ccc(C(=O)C(=O)N[C@H](CN4CCCC4)[C@H](O)c4ccc(OC5CC5)c(Cl)c4)cc3)cc12` [Example 314, N-((1R,2R)-1-(3-chloro-4-cyclopropoxyphenyl)-1-hydroxy-3-(pyrrolidin-1-yl)propan-2-yl)-2-(4-(1-isopropyl-3-methyl-1H-indazol-5-yl)phenyl)-2-oxoacetamide], the IC50 is below 50 nM.

As for `Cc1cc(F)ccc1-c1ccc(C(=O)C(=O)N[C@H](CN2CCCC2)[C@H](O)c2cc(F)c3c(c2)OCCO3)cc1` [Example 315, 2-(4′-fluoro-2′-methyl-[1,1′-biphenyl]-4-yl)-N-((1R,2R)-1-(8-fluoro-2,3-dihydrobenzo[b][1,4]dioxin-6-yl)-1-hydroxy-3-(pyrrolidin-1-yl)propan-2-yl)-2-oxoacetamide], the IC50 was below 50 nM.

Take `CC(C)n1cc2ccc(C(=O)C(=O)N[C@H](CN3CCCC3)[C@H](O)c3ccc(OC4CC4)c(Cl)c3)cc2n1` [Example 316, N-((1R,2R)-1-(3-chloro-4-cyclopropoxyphenyl)-1-hydroxy-3-(pyrrolidin-1-yl)propan-2-yl)-2-(2-isopropyl-2H-indazol-6-yl)-2-oxoacetamide]: the IC50 was below 50 nM.

Regarding `Cc1nn(C(C)C)c2ccc(C(=O)C(=O)N[C@H](CN3CCCC3)[C@H](O)c3ccc(OC4CC4)c(Cl)c3)cc12` [Example 317, N-((1R,2R)-1-(3-chloro-4-cyclopropoxyphenyl)-1-hydroxy-3-(pyrrolidin-1-yl)propan-2-yl)-2-(1-isopropyl-3-methyl-1H-indazol-5-yl)-2-oxoacetamide], the IC50 is below 50 nM.

As for `Cc1nn(C)c2ccc(-c3ccc(C(=O)C(=O)N[C@H](CN4CCCC4)[C@H](O)c4ccc(OC5CC5)c(Cl)c4)cc3)cc12` [Example 318, N-((1R,2R)-1-(3-chloro-4-cyclopropoxyphenyl)-1-hydroxy-3-(pyrrolidin-1-yl)propan-2-yl)-2-(4-(1,3-dimethyl-1H-indazol-5-yl)phenyl)-2-oxoacetamide], the IC50 is below 50 nM.

Turning to `O=C(N[C@H](CN1CCCC1)[C@H](O)c1ccc2c(c1)OC=CO2)C(=O)c1ccc(-c2ccc(F)cc2)cc1` [Example 319, N-((1R,2R)-1-(benzo[b][1,4]dioxin-6-yl)-1-hydroxy-3-(pyrrolidin-1-yl)propan-2-yl)-2-(4′-fluoro-[1,1′-biphenyl]-4-yl)-2-oxoacetamide], the half-maximal inhibitory concentration (IC50) is below 50 nM.

For the compound `O=C(N[C@H](CN1CCCC1)[C@H](O)c1ccc(SC2CC2)c(Cl)c1)C(=O)c1ccc(-c2ccc(F)cc2)cc1` [Example 320, N-((1R,2R)-1-(3-chloro-4-(cyclopropylthio)phenyl)-1-hydroxy-3-(pyrrolidin-1-yl)propan-2-yl)-2-(4′-fluoro-[1,1′-biphenyl]-4-yl)-2-oxoacetamide], the IC50 was below 50 nM.

As to `CC(C)n1ncc2cc(C(=O)C(=O)N[C@H](CN3CCCC3)[C@H](O)c3ccc(OC4CC4)c(Cl)c3)ccc21` [Example 321, N-((1R,2R)-1-(3-chloro-4-cyclopropoxyphenyl)-1-hydroxy-3-(pyrrolidin-1-yl)propan-2-yl)-2-(1-isopropyl-1H-indazol-5-yl)-2-oxoacetamide], the IC50 is below 50 nM.

`Cc1nn(C)c2ccc(-c3ccc(C(=O)C(=O)N[C@H](CN4CCCC4)[C@H](O)c4cc(F)c5c(c4)OCCO5)cc3)cc12` [Example 322, 2-(4-(1,3-dimethyl-1H-indazol-5-yl)phenyl)-N-((1R,2R)-1-(8-fluoro-2,3-dihydrobenzo[b][1,4]dioxin-6-yl)-1-hydroxy-3-(pyrrolidin-1-yl)propan-2-yl)-2-oxoacetamide]: the IC50 was below 50 nM.

Take `CC(C)n1ccc2cc(C(=O)C(=O)N[C@H](CN3CCCC3)[C@H](O)c3cc(F)c4c(c3)OCCO4)ccc21` [Example 323, N-((1R,2R)-1-(8-fluoro-2,3-dihydrobenzo[b][1,4]dioxin-6-yl)-1-hydroxy-3-(pyrrolidin-1-yl)propan-2-yl)-2-(1-isopropyl-1H-indo1-5-yl)-2-oxoacetamide]: the IC50 was below 50 nM.

Regarding `CC(C)n1ccc2cc(C(=O)C(=O)N[C@H](CN3CCCC3)[C@H](O)c3ccc(OC4CC4)c(Cl)c3)ccc21` [Example 324, N-((1R,2R)-1-(3-chloro-4-cyclopropoxyphenyl)-1-hydroxy-3-(pyrrolidin-1-yl)propan-2-yl)-2-(1-isopropyl-1H-indo1-5-yl)-2-oxoacetamide], the IC50 is below 50 nM.

As for `O=C(N[C@H](CN1CCCC1)[C@H](O)c1cc(F)c2c(c1)OCCO2)C(=O)c1ccc(N2CCOCC2)cc1` [Example 325, N-((1R,2R)-1-(8-fluoro-2,3-dihydrobenzo[b][1,4]dioxin-6-yl)-1-hydroxy-3-(pyrrolidin-1-yl)propan-2-yl)-2-(4-morpholinophenyl)-2-oxoacetamide], the half-maximal inhibitory concentration (IC50) was below 50 nM.

As to `O=C(N[C@@H](Cc1ccc(OC2CC2)c(Cl)c1)CN1CCCC1)C(=O)c1ccc(-c2ccc(F)cc2)cc1` [Example 326, (S)-N-(1-(3-chloro-4-cyclopropoxyphenyl)-3-(pyrrolidin-1-yl)propan-2-yl)-2-(4′-fluoro-[1,1′-biphenyl]-4-yl)-2-oxoacetamide], the IC50 was in the range of 50 to 5000 nM.

In the case of `O=C(N[C@H](CN1CCC1)[C@H](O)c1ccc(OC2CC2)c(Cl)c1)C(=O)c1ccc(N2CCCC2)cc1` [Example 327, N-((1R,2R)-3-(azetidin-1-yl)-1-(3-chloro-4-cyclopropoxyphenyl)-1-hydroxypropan-2-yl)-2-oxo-2-(4-(pyrrolidin-1-yl)phenyl)acetamide], the IC50 is below 50 nM.

Regarding `O=C(N[C@H](CN1CCCC1)[C@H](O)c1ccc(OC2CC2)c(Cl)c1)C(F)(F)CCc1ccc2cc(Cl)ccc2c1` [Example 328, N-((1R,2R)-1-(3-chloro-4-cyclopropoxyphenyl)-1-hydroxy-3-(pyrrolidin-1-yl)propan-2-yl)-4-(6-chloronaphthalen-2-yl)-2,2-difluorobutanamide], the IC50 was below 50 nM.

As for `C=COc1ccc([C@@H](O)[C@@H](CN2CCCC2)NC(=O)C(=O)c2ccc(-c3ccc(F)cc3)cc2)cc1Cl` [Example 329, N-((1R,2R)-1-(3-chloro-4-(vinyloxy)phenyl)-1-hydroxy-3-(pyrrolidin-1-yl)propan-2-yl)-2-(4′-fluoro-[1,1′-biphenyl]-4-yl)-2-oxoacetamide], the IC50 was below 50 nM.

Take `CC(C)n1cc(-c2ccc(C(=O)C(=O)N[C@H](CN3CCCC3)[C@H](O)c3cc(F)c4c(c3)OCCO4)cc2)cn1` [Example 330, N-((1R,2R)-1-(8-fluoro-2,3-dihydrobenzo[b][1,4]dioxin-6-yl)-1-hydroxy-3-(pyrrolidin-1-yl)propan-2-yl)-2-(4-(1-isopropyl-1H-pyrazol-4-yl)phenyl)-2-oxoacetamide]: the IC50 is below 50 nM.

Consider `CC(C)n1ccc2ccc(C(=O)C(=O)N[C@H](CN3CCCC3)[C@H](O)c3cc(F)c4c(c3)OCCO4)cc21` [Example 331, N-((1R,2R)-1-(8-fluoro-2,3-dihydrobenzo[b][1,4]dioxin-6-yl)-1-hydroxy-3-(pyrrolidin-1-yl)propan-2-yl)-2-(1-isopropyl-1H-indo1-6-yl)-2-oxoacetamide], for which the IC50 is below 50 nM.

For `CC(C)n1ccc2ccc(C(=O)C(=O)N[C@H](CN3CCCC3)[C@H](O)c3ccc(OC4CC4)c(Cl)c3)cc21` [Example 332, N-((1R,2R)-1-(3-chloro-4-cyclopropoxyphenyl)-1-hydroxy-3-(pyrrolidin-1-yl)propan-2-yl)-2-(1-isopropyl-1H-indo1-6-yl)-2-oxoacetamide], the concentration for half-maximal inhibition (IC50) was below 50 nM.

Consider `O=C(N[C@H](CN1CCCC1)[C@H](O)c1ccc(OC2CC2)cc1)C(=O)c1ccc(-c2ccc(F)cc2)cc1` [Example 333, N-((1R,2R)-1-(4-cyclopropoxyphenyl)-1-hydroxy-3-(pyrrolidin-1-yl)propan-2-yl)-2-(4′-fluoro-[1,1′-biphenyl]-4-yl)-2-oxoacetamide], for which the IC50 was below 50 nM.

Consider `Cc1nn(C(C)C)c2cc(-c3ccc(C(=O)C(=O)N[C@H](CN4CCCC4)[C@H](O)c4ccc(OC5CC5)c(Cl)c4)cc3)ccc12` [Example 334, N-((1R,2R)-1-(3-chloro-4-cyclopropoxyphenyl)-1-hydroxy-3-(pyrrolidin-1-yl)propan-2-yl)-2-(4-(1-isopropyl-3-methyl-1H-indazol-6-yl)phenyl)-2-oxoacetamide], for which the IC50 was below 50 nM.

`Cc1c2ccc(-c3ccc(C(=O)C(=O)N[C@H](CN4CCCC4)[C@H](O)c4cc(F)c5c(c4)OCCO5)cc3)cc2nn1C(C)C` [Example 335, N-((1R,2R)-1-(8-fluoro-2,3-dihydrobenzo[b][1,4]dioxin-6-yl)-1-hydroxy-3-(pyrrolidin-1-yl)propan-2-yl)-2-(4-(2-isopropyl-3-methyl-2H-indazol-6-yl)phenyl)-2-oxoacetamide]: the IC50 was below 50 nM.

Take `Cc1c2ccc(-c3ccc(C(=O)C(=O)N[C@H](CN4CCCC4)[C@H](O)c4ccc(OC5CC5)c(Cl)c4)cc3)cc2nn1C(C)C` [Example 336, N-((1R,2R)-1-(3-chloro-4-cyclopropoxyphenyl)-1-hydroxy-3-(pyrrolidin-1-yl)propan-2-yl)-2-(4-(2-isopropyl-3-methyl-2H-indazol-6-yl)phenyl)-2-oxoacetamide]: the IC50 is below 50 nM.
